Experimental data from patent US20130040979A1, “CCR1 INHIBITORS USEFUL FOR THE TREAMENT OF MULTIPLE MYELOMA AND OTHER DISORDERS” (Millennium Pharmaceuticals, Inc., priority 2007, published 2013).

Experiments:
Type in all cases: cell-based, human
INA6 cells = experiment: Short-term co-culture of osteoclasts and multiple myeloma cells (thymidine uptake); conditions: 48 hours
Experimental: (§1) Co-culture experiments: Osteoclasts were harvested with cell dissociation buffer (Invitrogen, Carlsbad, Calif.) and seeded in 96-well or 24-well plates (approximately 1.5−3×10^4 cells/cm^2). After washing, multiple myeloma cells were added to the wells and incubated with media or with Compound 51 (10 nM) for the specified times at 37° C. For multiple myeloma cell proliferation, DNA synthesis was measured by tritiated thymidine uptake (3H-TdR; Perkin Elmer, Boston, Mass.), pulsing multiple myeloma cells with 3H-TdR (0.5 μCi/well [0.0185 MBq]L) during the last 8 hours of 48-hour cultures. At the end of the culture, cells were harvested onto paper filters with an automatic cell harvester (Cambridge Technology, Cambridge, Mass.) and counted using the LKB Betaplate scintillation counter (Wallac, Gaithersburg, Md.). To assess cell survival, viable multiple myeloma cells were counted by trypan blue staining.
Osteoclasts were seeded in a 96-well plate at a density of 10^4 cells/well and cocultured with INA6 cells (3×10^4 cells/well) for 48 hours.

[1] = system: osteoclast activity (bone resorption); experiment: Pit formation assay (osteoclast bone resorption on dentin slices); conditions: 10 nM, 3 weeks
Experimental: Osteoclast activity was assayed by bone resorption enumerating resorption pits. PBMCs were cultured (0.5×10^6 cells/well) on dentin slices (Immunodiagnostic Systems, Boldon, United Kingdom) in 96-well plates as per the manufacturer's guidelines, and then stimulated with RANKL and M-CSF (50 ng/mL); Compound 51 was added as indicated in FIG. 2. After 3 weeks, adherent cells were scraped off gently with 0.1% Triton. Bone slices were washed in distilled water and stained with 1% toluidine solution. Resorption pits were then quantified by light microscopy using the public domain National Institutes of Health (NIH) Image J software version 1.36b. Each pit area assay was performed at least 3 times with PBMCs from different donors.

[2] = system: multiple myeloma cells co-cultured with osteoclasts; experiment: Long-term co-culture of osteoclasts and multiple myeloma cells
From the text: MM primary cells: Patient tumor cells were isolated as described in Kiziltepe et al., Blood 110:709-718 (2007). Following appropriate informed consent, obtained in accordance with the Declaration of Helsinki and with approval by the Institutional Review Board of the Dana-Farber Cancer Institute (Boston, Mass.), MM patient cells were separated from bone marrow (BM) samples by antibody-mediated positive selection using anti-CD138 magnetic activated cell separation microbeads (Miltenyi Biotech, Gladbach, Germany).
as §1
Osteoclasts were plated in a 24-well plate (3×10^4 cells/well) with either INA6 mutliple myeloma cells (5×10^3 cells/well) or primary patient multiple myeloma cells (3×10^5 cells/well) for 5 days using the general method described above.

[3] = system: multiple myeloma cell adhesion to osteoclasts; experiment: Adhesion assay: multiple myeloma cells to osteoclasts; conditions: 6 hours incubation; independent of CCR1 expression on MM cells
Experimental: (§2) Cell lines: The dexamethasone (Dex)-sensitive (MM.1S) human MM cell line was provided by Dr Steven Rosen (Northwestern University, Chicago, Ill.). The INA6 human IL-6-dependent MM cell line was provided by Dr Renate Burger (University of Kiel, Kiel, Germany) (see Burger et al., J. Hematol. 2:42-53 (2001)) and cultured in the presence of 2.5 ng/mL IL-6 (R&D Systems, Minneapolis, Minn.). The OPM1 myeloma cell line was provided by Dr Lief Bergsagel (Mayo Clinic, Scottsdale, Ariz.), and the U266 cell line was obtained from the American Type Culture Collection (Rockville, Md.). All MM cell lines were cultured in RPMI 1640 media (Sigma Chemical) containing 10% fetal bovine serum (FBS), 2 mM L-glutamine, 100 U/mL penicillin, and 100 μg/mL streptomycin (Gibco, Grand Island, N.Y.).
(§3) Multiple myeloma cell lines were labeled with calcein AM (Invitrogen) according to the manufacturer's instructions and plated in a 96-well plates with OCs, fibronectin (FBN; 20 μg/mL), or media, with or without Compound 51. After 6 hours of incubation, plates were washed and fluorescence of the adherent cells was measured using the Multimode Reader Mithras LB 940 (Berthold Technologies, Wildbad, Germany). […] As also shown in FIG. 3, there were no effects on MM cell adhesion to fibronection (FBN).

[4] = system: osteoclasts generated from peripheral blood mononuclear cells (PBMCs); experiment: Osteoclast formation and TRAP assay
Experimental: Osteoclast formation. Osteoclasts were generated from peripheral blood mononuclear cells (PBMCs) from healthy volunteers by Ficoll-Paque gradient separation and cultured in 6-well or 96-well plates (0.5×10^6 cells/cm^2). After 2 hours, nonadherent PBMCs were removed, and adherent cells were cultured for 21 days in α-MEM containing 10% FBS and 1% penicillin-streptomycin (Mediatech, Herndon, Va.), as well as 50 ng/mL of macrophage colony-stimulating factor (M-CSF; R&D Systems, Minneapolis, Minn.) and RANKL (PeproTech, Rocky Hill, N.J.).
After 3 weeks, cells were fixed with citrate-acetone solution and stained for tartrate-resistant acid phosphatase (TRAP) using an acid phosphatase leukocyte staining kit (Sigma Chemical) according to the manufacturer's instructions. TRAP^+ OCs containing 3 or more nuclei per cell were enumerated. Each OC formation assay was performed at least 3 times using PBMCs from different donors.

[5] = system: MM cell adhesion to fibronectin (FBN); experiment: Adhesion assay: multiple myeloma cells to fibronectin; conditions: 6 hours incubation, FBN 20 μg/mL
Experimental: as §2, §3

CC(C)(O)c1ccc2c(c1)C(=CCCN1CC[C@](O)(c3ccc(Cl)cc3)C(C)(C)C1)c1cccnc1CO2 [Compound 51, (4S)-4-(4-chlorophenyl)-1-{3-[7-(1-hydroxy-1-methylethyl)[1]benzoxepino[3,4-b]pyridin-5(11H)-ylidene]propyl}-3,3-dimethylpiperidin-4-ol]
antiproliferative effect on MM cells alone (INA6 cells; no osteoclasts): only modest antiproliferative effects | reduction of MM cell proliferative response induced by OCs (INA6 cells; INA6 cells co-cultured with osteoclasts, P<0.05): 50% | resorptive tracks and pit numbers ([1]; dentin slices): almost complete abrogation | bone resorption area, mean±SD, of total area per slice ([1]; control 8.7%±1.9%, P<0.01): 2.4%±1.2 | survival advantage conferred by osteoclasts ([2]; INA6 cells, 5 days co-culture, 10 nM): almost completely abrogated | survival advantage conferred by osteoclasts ([2]; MM1.S cells (data not shown)): same effect was also noted | survival advantage conferred by osteoclasts ([2]; primary MM cells, 5 days co-culture, 10 nM): almost completely abrogated | multiple myeloma cell adhesion to osteoclasts [3]: almost complety inhibited | reduction of osteoclast number compared to control ([4]; 10 nM, 3 weeks, TRAP+ OCs with 3 or more nuclei, p<0.05): 40-60% | dose dependence of decrease in osteoclast number ([4]; doses up to 100 nM): No dose-dependent effect | MM cell adhesion to fibronectin (FBN) [5]: no effects
